Values of other authors, collected in US20240188563A1, “CATHETER LOCK SOLUTIONS INCORPORATING NITRIC OXIDE RELEASING LIPOSOMES” (Becton, Dickinson and Company, priority 2022, published 2024).

Tested on: platelets
Settings: extracorporeal circuit

For CC(=O)N[C@H](C(=O)O)C(C)(C)SN=O [SNAP only, S-nitroso-N-acetyl penicillamine], the “Platelet count after 4 h (% of initial)” value is listed as “vs. 50% (SNAP only)”.
